Source: patent publication US10336732B2, “1-heterocyclyl isochromanyl compounds and analogs for treating CNS disorders” (Sunovion Pharmaceuticals Inc., priority 2015, dated 2019)

Test system: mice
Assay: Neuropharmacological assay (SmartCube), behavioral signature of compound-treated mice
Type: in vivo
Conditions: i.p. 15 min before behavioral test, most efficacious dose(s) of 3 doses
Text: Neurosci. […] As reported in Roberds, because psychiatric diseases generally result from disorders of cell-cell communication or circuitry, intact systems are useful in detecting improvement in disease-relevant endpoints. These endpoints are typically behavioral in nature, often requiring human observation and interpretation. To facilitate testing of multiple compounds for behavioral effects relevant to psychiatric disease, PsychoGenics, Inc. (Tarrytown, N.Y., “PGI”) developed SmartCube™, an automated system in which behaviors of compound-treated mice are captured by digital video and analyzed with computer algorithms. […] PGI Analytical Systems uses data from SmartCube™ to compare the behavioral signature of a test compound to a database of behavioral signatures obtained using a large set of diverse reference compounds. (The composition of the database as well as validation of the method is further described in Roberds). In this way, the neuropharmacological effects of a test compound can be predicted by similarity to major classes of compounds, such as antipsychotics, anxiolytics and antidepressants.
The SmartCube™ system produces an activity signature indicating the probability that the activity of the test compound at the administered dose matches a given class of neuropharmacological agents. (See, e.g., Roberds, FIGS. 2 and 3). The test compound is simultaneously compared against multiple classes of agents; thus, a separate probability is generated for each behavioral effect measured (e.g., anxiolytic activity, analgesic activity, etc.). In Table 4, these probabilities are reported for each behavioral effect measured as follows:
Provided compounds were dissolved in a mixture of Pharmasolve™ (N-methyl-2-pyrrolidone), polyethylene glycol and propylene glycol, and were injected i.p. 15 min. before the behavioral test. For each compound, injections were administered at 3 different doses. For each behavioral effect measured, results for the most efficacious dose(s) are presented.

| SMILES | AD: ADHD (probability that behavioral signature matches class) | AG: analgesic (probability that behavioral signature matches class) | AX: anxiolytic (probability that behavioral signature matches class) | CE: cognitive enhancer (probability that behavioral signature matches class) | DP: anti-depressant (probability that behavioral signature matches class) | HA: hallucinogen (probability that behavioral signature matches class) | MS: mood stabilizer (probability that behavioral signature matches class) | PS: anti-psychotic (probability that behavioral signature matches class) | SD: sedative hypnotic (probability that behavioral signature matches class) | UN: uncharacterized CNS activity (probability that behavioral signature matches class) |
| --- | --- | --- | --- | --- | --- | --- | --- | --- | --- | --- |
| Fc1cccc2c1CCO[C@H]2[C@@H]1CCN1 [Compound I-93, (S)-2-((R)-5-fluoroisochroman-1-yl)azetidine] | ++ (5% ≤ ++ <25%) | +++ (25% ≤ +++ <50%) | ++ (5% ≤ ++ <25%) | ++ (5% ≤ ++ <25%) | +++ (25% ≤ +++ <50%) | + (LOQ ≤ + <5%) | + (LOQ ≤ + <5%) | ++ (5% ≤ ++ <25%) | ++ (5% ≤ ++ <25%) | ++ (5% ≤ ++ <25%) |
| Fc1ccc2c(c1)CO[C@@H]2[C@H]1CCCN1 [Compound I-120, (R)-2-((S)-5-fluoro-1,3-dihydroisobenzofuran-1-yl)pyrrolidine] | + (LOQ ≤ + <5%) | ++ (5% ≤ ++ <25%) | ++ (5% ≤ ++ <25%) | +++ (25% ≤ +++ <50%) | ++ (5% ≤ ++ <25%) | + (LOQ ≤ + <5%) | ++ (5% ≤ ++ <25%) | ++ (5% ≤ ++ <25%) | ++ (5% ≤ ++ <25%) | ++ (5% ≤ ++ <25%) |
| Fc1ccc2c(c1)CO[C@H]2[C@H]1CCCN1 [Compound I-121, (R)-2-((R)-5-fluoro-1,3-dihydroisobenzofuran-1-yl)pyrrolidine] | + (LOQ ≤ + <5%) | +++ (25% ≤ +++ <50%) | +++ (25% ≤ +++ <50%) | ++ (5% ≤ ++ <25%) | ++ (5% ≤ ++ <25%) | + (LOQ ≤ + <5%) | + (LOQ ≤ + <5%) | ++ (5% ≤ ++ <25%) | ++ (5% ≤ ++ <25%) | ++ (5% ≤ ++ <25%) |
| Fc1ccc2c(c1)[C@@H]([C@@H]1CCCN1)OCCC2 [Compound I-106, (S)-2-((S)-8-fluoro-1,3,4,5-tetrahydrobenzo[c]oxepin-1-yl)pyrrolidine] | + (LOQ ≤ + <5%) | ++ (5% ≤ ++ <25%) | ++ (5% ≤ ++ <25%) | +++ (25% ≤ +++ <50%) | + (LOQ ≤ + <5%) | + (LOQ ≤ + <5%) | + (LOQ ≤ + <5%) | ++ (5% ≤ ++ <25%) | + (LOQ ≤ + <5%) | + (LOQ ≤ + <5%) |
| c1cc(-c2ccc3c(c2)CCO[C@H]3[C@@H]2CCCN2)on1 [Compound I-56, 5-((R)-1-((S)-pyrrolidin-2-yl)isochroman-6-yl)isoxazole] | ++ (5% ≤ ++ <25%) | +++ (25% ≤ +++ <50%) | ++ (5% ≤ ++ <25%) | ++ (5% ≤ ++ <25%) | +++ (25% ≤ +++ <50%) | + (LOQ ≤ + <5%) | ++ (5% ≤ ++ <25%) | ++ (5% ≤ ++ <25%) | + (LOQ ≤ + <5%) | + (LOQ ≤ + <5%) |
| Fc1ccc2c(c1)[C@@H]([C@H]1CCCN1)OCC2 [Compound I-8, (R)-2-((S)-7-fluoroisochroman-1-yl)pyrrolidine] | + (LOQ ≤ + <5%) | + (LOQ ≤ + <5%) | ++ (5% ≤ ++ <25%) | ++ (5% ≤ ++ <25%) | +++ (25% ≤ +++ <50%) | + (LOQ ≤ + <5%) | + (LOQ ≤ + <5%) | +++ (25% ≤ +++ <50%) | ++ (5% ≤ ++ <25%) | ++ (5% ≤ ++ <25%) |
| Fc1ccc2c(c1)CCO[C@H]2[C@H]1CCN1 [Compound I-92, (R)-2-((R)-6-fluoroisochroman-1-yl)azetidine] | + (LOQ ≤ + <5%) | ++ (5% ≤ ++ <25%) | ++ (5% ≤ ++ <25%) | +++ (25% ≤ +++ <50%) | ++ (5% ≤ ++ <25%) | + (LOQ ≤ + <5%) | ++ (5% ≤ ++ <25%) | +++ (25% ≤ +++ <50%) | + (LOQ ≤ + <5%) | + (LOQ ≤ + <5%) |
| Cc1ccc2c(c1)[C@H]([C@H]1CCCN1)OCC2 [Compound I-28, (R)-2-((R)-7-methylisochroman-1-yl)pyrrolidine] | + (LOQ ≤ + <5%) | ++ (5% ≤ ++ <25%) | +++ (25% ≤ +++ <50%) | + (LOQ ≤ + <5%) | ++ (5% ≤ ++ <25%) | + (LOQ ≤ + <5%) | + (LOQ ≤ + <5%) | ++ (5% ≤ ++ <25%) | + (LOQ ≤ + <5%) | ++ (5% ≤ ++ <25%) |
| Fc1cccc2c1CCO[C@H]2[C@H]1CCCN1 [Compound I-15, (R)-2-((R)-5-fluoroisochroman-1-yl)pyrrolidine] | + (LOQ ≤ + <5%) | ++ (5% ≤ ++ <25%) | +++ (25% ≤ +++ <50%) | ++ (5% ≤ ++ <25%) | ++ (5% ≤ ++ <25%) | + (LOQ ≤ + <5%) | + (LOQ ≤ + <5%) | ++ (5% ≤ ++ <25%) | + (LOQ ≤ + <5%) | + (LOQ ≤ + <5%) |
| Fc1ccc2c(c1)CCO[C@H]2[C@@H]1CCCCN1 [Compound I-74, (S)-2-((R)-6-fluoroisochroman-1-yl)piperidine] | + (LOQ ≤ + <5%) | ++ (5% ≤ ++ <25%) | ++ (5% ≤ ++ <25%) | ++ (5% ≤ ++ <25%) | ++ (5% ≤ ++ <25%) | + (LOQ ≤ + <5%) | + (LOQ ≤ + <5%) | +++ (25% ≤ +++ <50%) | ++ (5% ≤ ++ <25%) | + (LOQ ≤ + <5%) |

Same assay, conditions: i.p. 15 min before behavioral test, most efficacious dose(s) of 3 doses

| SMILES | XG: anxiogenic (probability that behavioral signature matches class) |
| --- | --- |
| Fc1cccc2c1CCO[C@H]2[C@@H]1CCN1 [Compound I-93, (S)-2-((R)-5-fluoroisochroman-1-yl)azetidine] | + (LOQ ≤ + <5%) |
| Fc1ccc2c(c1)CO[C@@H]2[C@H]1CCCN1 [Compound I-120, (R)-2-((S)-5-fluoro-1,3-dihydroisobenzofuran-1-yl)pyrrolidine] | + (LOQ ≤ + <5%) |
| Fc1ccc2c(c1)CO[C@H]2[C@H]1CCCN1 [Compound I-121, (R)-2-((R)-5-fluoro-1,3-dihydroisobenzofuran-1-yl)pyrrolidine] | + (LOQ ≤ + <5%) |
| Fc1ccc2c(c1)[C@@H]([C@@H]1CCCN1)OCCC2 [Compound I-106, (S)-2-((S)-8-fluoro-1,3,4,5-tetrahydrobenzo[c]oxepin-1-yl)pyrrolidine] | + (LOQ ≤ + <5%) |
| c1cc(-c2ccc3c(c2)CCO[C@H]3[C@@H]2CCCN2)on1 [Compound I-56, 5-((R)-1-((S)-pyrrolidin-2-yl)isochroman-6-yl)isoxazole] | + (LOQ ≤ + <5%) |
| Fc1ccc2c(c1)[C@@H]([C@H]1CCCN1)OCC2 [Compound I-8, (R)-2-((S)-7-fluoroisochroman-1-yl)pyrrolidine] | + (LOQ ≤ + <5%) |
| Fc1ccc2c(c1)CCO[C@H]2[C@H]1CCN1 [Compound I-92, (R)-2-((R)-6-fluoroisochroman-1-yl)azetidine] | + (LOQ ≤ + <5%) |
| Cc1ccc2c(c1)[C@H]([C@H]1CCCN1)OCC2 [Compound I-28, (R)-2-((R)-7-methylisochroman-1-yl)pyrrolidine] | + (LOQ ≤ + <5%) |
| Fc1cccc2c1CCO[C@H]2[C@H]1CCCN1 [Compound I-15, (R)-2-((R)-5-fluoroisochroman-1-yl)pyrrolidine] | + (LOQ ≤ + <5%) |
| Fc1ccc2c(c1)CCO[C@H]2[C@@H]1CCCCN1 [Compound I-74, (S)-2-((R)-6-fluoroisochroman-1-yl)piperidine] | + (LOQ ≤ + <5%) |
